Reference: US10308689B2, “Dengue virus (DV) polypeptide sequences, T cell epitopes and methods and uses thereof” (LA JOLLA INSTITUTE FOR ALLERGY AND IMMUNOLOGY, priority 2010, dated 2019)
Ends that are not written are not given here.

System: PBMC of healthy adult blood donors from Colombo, Sri Lanka
Experiment: Ex vivo IFNγ ELISPOT, HLA-matched PBMC of Sri Lankan blood donors
Format: cell-based, human
Parameters: Total Response per epitope: unit not given here
Conditions: for T cell response [SFC]: ex vivo IFNγ SFC/10^6 PBMC; for # of responders: responding donors, HLA allele(s); for # donors responded: number of donors responding to the epitope
[1] = restricting HLA allele and serotype as given
[2] = total over responding donors, restricting HLA allele and serotype as given
[3] = IFNγ ELISPOT response summed over responding donors, per epitope
[4] = HLA-matched PBMC, proteome-wide screen
[5] = HLA allele, supertype and serotype
[6] = summed IFNγ ELISPOT response per epitope, HLA allele and serotype as given

| Sequence | # donors responded [1] | Total Response per epitope [2] | Total Response per epitope [3] | # donors responded [4] | also measured |
| --- | --- | --- | --- | --- | --- |
| DTTPFGOOR | – | – | – | – | T cell response [SFC] (per epitope): 3260 SFC; # of responders: 8 |
| EERDIPERSW | 1 | 133.3 | – | – | – |
| EPISYDPKF | 1 | 340.0 | – | – | – |
| FAGPVSQHNY | 3 | 428.3 | – | – | – |
| FLMVLLIPEP | 1 | 28.3 | – | – | – |
| FTILALFLAH | 8 | 1715.0 | – | – | T cell response [SFC] (per epitope): 1715 SFC; # of responders: 8 |
| GAMLFLISGK | 1 | 23.3 | – | – | – |
| GEFRLRGEQR | 3 | 1373.3 | – | – | T cell response [SFC] (per epitope): 1373 SFC; # of responders: 3 |
| GFFLRKLTSR | 1 | 81.7 | – | – | – |
| GPLVAGGLL | 3 | 748.3 | – | – | – |
| HPGAGKTKRY | 10 | 3046.7 | – | – | T cell response [SFC] (per epitope): 3047 SFC; # of responders: 10 |
| IANOATVLM | – | – | – | – | T cell response [SFC] (per epitope): 1518 SFC; # of responders: 7 |
| IANQAAILM | 1 | 58.3 | – | – | – |
| IETTILDVDL | – | – | 1413.3 | 2 | – |
| IGIGVLLTW | 1 | 378.3 | – | – | – |
| KEGVFHTMW | 1 | 178.3 | – | – | – |
| KQISNELNY | 1 | 26.7 | – | – | – |
| KSGAIKVLK | 1 | 48.3 | – | – | – |
| KVLNPYMPSV | – | – | 63.3 | 1 | – |
| LATGPVLTLW | 1 | 745.0 | – | – | T cell response [SFC] (per epitope): 745 SFC; # of responders: 1 |
| LMMILPAAL | – | – | 46.7 | 1 | – |

| Sequence | # donors responded [1] | Total Response per epitope [2] | Total Response per epitope [3] | # donors responded [4] | also measured |
| --- | --- | --- | --- | --- | --- |
| LPVWLAHKVA | – | – | 23.3 | 1 | T cell response [SFC] (per epitope): 23 SFC; # of responders: 1 |
| MPVTVASAAQ | – | – | 51.7 | 1 | – |
| MVSRLLLNR | – | – | 28.3 | 1 | – |
| NPNMIDKTPV | – | – | 376.7 | 2 | – |
| NPWMEDKTPV | – | – | 191.7 | 2 | – |
| RASFIEVKTC | – | – | 290.0 | 2 | – |
| REDLWCGSL | – | – | 96.7 | 1 | – |
| REIPERSWNT | – | – | 1278.3 | 2 | – |
| REWCFTGERN | – | – | 1345.0 | 2 | – |
| RFLEFEALGF | – | – | 181.7 | 1 | – |
| RPGYHTQTA | – | – | 501.7 | 2 | – |
| SEMAEALKGM | – | – | 30.0 | 1 | – |
| SPKRLATAIA | – | – | 68.3 | 1 | – |
| TLMAAILAY | 1 | 43.3 | – | – | – |
| TLMAMDLGEL | – | – | 823.3 | 1 | – |
| TPFGIIPAL | – | – | – | – | # of responders: 1 |
| TTKRDLGMSK | – | – | – | – | # donors responded [5]: 1; Total Response per epitope [6]: 35.0 |
| VPLLAMGCY | – | – | – | – | # donors responded [5]: 1; T cell response [SFC] (per epitope): 1083 SFC; # of responders: 1; Total Response per epitope [6]: 1083.3 |
| YAQMWQLMYF | – | – | 135.0 | 1 | – |
| YTPEGIIPTL | – | – | – | – | # donors responded [5]: 1; T cell response [SFC] (per epitope): 872 SFC; # of responders: 1; Total Response per epitope [6]: 871.7 |
